Reference: PMC8009417, “Selective killing of homologous recombination-deficient cancer cell lines by inhibitors of the RPA:RAD52 protein-protein interaction” (PLoS ONE, 2021)
Where “and” joins values, the source holds several entries; their conditions need not be identical. Identical values can stand only once.

How the values were obtained:
[1] = target: RAD52 ssDNA binding domain; set-up: method as in PMID 26548611; conditions: read-out: IC50, allosteric inhibitor of the RAD52 ssDNA binding domain; cited from earlier work
[2] = system: BRCA2-revertant PE01 C4-2 cells (BRCA2+); test: Cell viability assay (PrestoBlue, 72 h), PE01 C4-2; conditions: Homo sapiens, C4-2, 72 h, read-out: EC50, cell viability
[3] = system: BRCA1-deficient HCC1937 breast cancer cells (empty vector, BRCA1-); test: Cell viability assay (PrestoBlue, 72 h), HCC1937 with empty vector; type: cell-based; conditions: Homo sapiens, estimated from the graphs
Experimental: (§1) Fig 2 BRCA1-deficient HCC1937 breast cancer cell line survival assay. BRCA1-deficient HCC1937 cells corrected with wild-type BRCA1 gene (BRCA1+; closed triangle), and with an empty vector (BRCA1-; closed circle) were examined. For each experiment (Figs 2–4), cell lines were treated with nine concentrations of (A) quinacrine, (B) mitoxantrone, and (C) doxorubicin in 96-well culture plates at 5x10^3 cell/well density. Each treatment point was made in sextuplicate. Treated cells were incubated for 72 hours at 37°C before assessing cell viability using PrestoBlue. Data were normalized to vehicle control. The experiment was repeated three times. Error bars indicate the standard deviation.
(§2) The HCC1937 cell line (a gift from Dr. Simon Powell Memorial Sloan Kettering (MSK), New York) was derived from a mammary gland primary ductal carcinoma at the early onset of a tumor. This TNBC patient carried a germline mutation in BRCA1, resulting in carboxy-terminal truncated protein and loss of the second BRCA1 allele. BRCA1-restored and empty vector cell lines were also obtained by transfection of a vector containing a full-length human BRCA1 cDNA or an empty vector, respectively. The HCC1937 cell lines were cultured as described.
(§3) Cells were seeded 5 x 10^3 cells per well in 96-well plates in a 90 μL volume per well one day before treatment. Cells in 96-well plates were incubated with increasing concentrations of the compound or vehicle control (1% DMSO) for 72 hours. Each treatment plate contained nine concentrations of a compound in sextuplicate. Growth inhibition was determined using PrestoBlue reagent (Life Technologies, #A13261). Fluorescent measurements were taken using a Spectramax M5 plate reader (MDS). To assess cells’ replication in the absence of compounds as a control, six wells on each plate were treated with vehicle to be read in triplicate at the initial treatment day (T0) and at 72-hour read (T100).

[4] = system: PARPi-resistant UWB1.289.SYr12 cells; test: Cell viability assay (PrestoBlue, 72 h), UWB1.289.SYr12; type: cell-based; conditions: Homo sapiens, estimated from the graphs
Description: (§4) BRCA1-deficient UWB1.289 cells corrected with wild-type BRCA1 gene (BRCA1+; closed triangle) and parental BRCA1-deficient UWB1.289 (BRCA1-; closed circle). Two PARPi-resistant cell lines derived from UWB1.289, UWB1.289.SYr12 (closed diamond) and UWB1.SYr13 (X), were also examined.
(§5) UWB1.289 (a gift from Dr. Lee Zou, Harvard Medical School, Boston, MA) were derived from a serous ovarian carcinoma with a germline BRCA1 mutation and a deletion of the wild-type allele. […] Two PARP-resistant cell lines, SYr12 and SYr13, were derived from the UWB1.289. The Mammary Epithelial growth media, along with SupplementMix solution for UWB1 cell lines, were obtained from PromoCell GmbH and mixed as described.
as §3

[5] = system: UWB1.289 cells corrected with wild-type BRCA1 gene (BRCA1+); test: Cell viability assay (PrestoBlue, 72 h), UWB1.289+BRCA1; type: cell-based; conditions: Homo sapiens, UWB1289, estimated from the graphs
Description: as §4, §5, §3

[6] = system: PARPi-resistant UWB1.SYr13 cells; test: Cell viability assay (PrestoBlue, 72 h), UWB1.SYr13; type: cell-based; conditions: Homo sapiens, estimated from the graphs
Description: as §4, §5, §3

[7] = system: HCC1937 cells corrected with wild-type BRCA1 gene (BRCA1+); test: Cell viability assay (PrestoBlue, 72 h), HCC1937+BRCA1; type: cell-based; conditions: Homo sapiens, estimated from the graphs
Experimental: as §1, §2, §3

[8] = target: T1, RPA:RAD52 protein-protein interaction (Homo sapiens, UniProt P43351); test: FluorIA (Fluorescence-based protein-protein Interaction Assay), GFP-RAD52 binding to plate-coated RPA; conditions: polynomial curve fitting; 15 dose concentrations 0.03–500 μM, triplicate; RAD52(1–303) positive control; read-out: EC50 in FluorIA (inhibition of RPA:RAD52 PPI)
T1 construct: made in house
T1 sequence (P43351 1-418): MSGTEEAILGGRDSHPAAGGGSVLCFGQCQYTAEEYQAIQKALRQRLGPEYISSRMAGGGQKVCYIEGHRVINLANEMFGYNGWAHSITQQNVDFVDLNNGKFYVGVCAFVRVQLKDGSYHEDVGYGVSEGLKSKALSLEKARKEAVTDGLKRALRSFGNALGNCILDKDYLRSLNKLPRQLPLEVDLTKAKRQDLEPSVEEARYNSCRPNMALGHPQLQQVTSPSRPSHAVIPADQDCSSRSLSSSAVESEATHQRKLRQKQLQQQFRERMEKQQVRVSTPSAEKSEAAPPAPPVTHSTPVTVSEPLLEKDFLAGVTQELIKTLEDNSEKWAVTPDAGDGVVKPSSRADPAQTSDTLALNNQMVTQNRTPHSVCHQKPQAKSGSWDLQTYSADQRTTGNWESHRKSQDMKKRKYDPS
Experimental: A newly developed fluorescence-based assay for detecting protein-protein interactions, FluorIA was used to identify SMIs of RPA:RAD52 PPI. The detailed FluorIA protocol is published elsewhere. Briefly, 384-well plates (Thermo Fisher Scientific, #460518) were coated with purified RPA. Then compounds or controls were added and incubated with freshly prepared GFP-RAD52. RAD52(1–303) without GFP-tag and buffer (including DMSO) only were used as controls. Then the relative fluorescence (RFU) was measured using a POLARstar OPTIMA plate reader (BMG LABTECH) on emptied plates at an excitation/emission (for eGFP) of 485/520 nm at 2500 gain setting.
Three chemical libraries the 355-member SelleckChem Kinase Inhibitor Library, the 1200-member Prestwick Chemical Library, and the 100,000-member ChemBridge library were used for the screening. The screening of the SelleckChem Kinase Inhibitor and the Prestwick libraries were performed at 10 and 100 μM each in duplicate. The screening of the ChemBridge library was conducted at 100 μM. […] The statistical criteria for a hit were fully described in Al-Mugotir et al.. Each hit was verified in triplicate at 10 and 100 μM.
The in vitro EC50 value of each hit was determined with FluorIA. The chemicals were serially diluted by two-fold increments from 0.030 to 500 μM and analyzed in triplicate with FluorIA. RAD52(1–303) was used as a positive control and buffer with DMSO was used as a negative control. Candidate SMIs with strong inhibition were purchased, and a 1D NMR analysis was carried out to verify their identities. The eleven candidates SMIs were purchased as follows: 5137134, 5246481, 52614577,5316833, 5373030, and 7623574 from Chembridge HIT2LEAD, 5989499 from Wuxi lab network, 5375405 from Aronis, quinacrine and mitoxantrone from Sigma Aldrich, and doxorubicin from LC labs. D-I03 was purchased from Molport. Their effectiveness in inhibiting the RPA:RAD52 PPI was confirmed after purchase with the FluorIA as described above (S1 Fig).
Supplementary file pone.0248941.s001.tif: S1 Fig Validation experiments of eleven hits with the FlourIA. Sixteen treatment concentrations were used (0.030–500 μM) increasing by two-fold increments of each molecule/drug obtained as a hit in HTS FluorIA. RAD52(1–303) without GFP-tag and buffer (including DMSO) only were used as controls. Percent inhibition was calculated as follows: [(RFUSMI—RFURAD52(1–303)) / (RFUDMSO—RFURAD52(1–303))]*100, where RFU is relative fluorescence unit. An average of triplicate measurements was used. The treatment points for quinacrine and doxorubicin beyond 125 μM were showing characteristics of aggregation and were not used. (TIF) Click here for additional data file.

[9] = system: BRCA2-deficient PE01 ovarian cancer cells (BRCA2-); test: Cell viability assay (PrestoBlue, 72 h), PE01; type: cell-based; conditions: Homo sapiens, estimated from the graphs
Experimental: BRCA2-deficient PE01 cell line (a gift from Dr. Toshiyasu Taniguchi, Tokai University, Japan) were derived from an ovarian cancer patient. BRCA2-proficient “revertant” cell line, C4-2 is one of eight clones derived from PE01 that has acquired resistance to both cisplatin and PARPi due to a secondary mutation that restored the BRCA2 function. PE01 and PE01 C4-2 were grown and maintained in DMEM high glucose (Hyclone) supplemented with 10% Fetal Bovine Serum (FBS, Invitrogen).
as §3

[10] = system: BRCA1-deficient UWB1.289 ovarian cancer cells (BRCA1-); test: Cell viability assay (PrestoBlue, 72 h), UWB1.289; type: cell-based; conditions: Homo sapiens, UWB1289, estimated from the graphs
Description: as §4, §5, §3

[11] = target: RPA, endogenous in U2OS cells (human (endogenous in U2OS)) (UniProt P15927)
RPA, endogenous in U2OS cells (human (endogenous in U2OS)), sequence (P15927 whole entry, looked up): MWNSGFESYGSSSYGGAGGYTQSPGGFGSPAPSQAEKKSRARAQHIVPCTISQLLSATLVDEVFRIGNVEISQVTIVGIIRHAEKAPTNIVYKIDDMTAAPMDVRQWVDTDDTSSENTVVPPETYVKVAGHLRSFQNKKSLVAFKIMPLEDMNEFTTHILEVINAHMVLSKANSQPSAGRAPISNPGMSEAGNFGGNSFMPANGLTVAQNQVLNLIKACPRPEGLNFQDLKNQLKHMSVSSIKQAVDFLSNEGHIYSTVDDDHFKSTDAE

Molecule	EC50 [2] [µM]	EC50 [3] [µM]	EC50 [4] [µM]	EC50 [5] [µM]	EC50 [6] [µM]	EC50 [7] [µM]	EC50 [8]	EC50 [9] [µM]	EC50 [10] [µM]	also measured
NC(Cc1cc(O)c(O)cc1O)C(=O)O (racemic) [6-hydroxy-DL-dopa]										IC50 [1]: 1.1 µM
COc1cccc2c1C(=O)c1c(O)c3c(c(O)c1C2=O)C[C@@](O)(C(=O)CO)C[C@@H]3O[C@H]1C[C@H](N)[C@H](O)[C@H](C)O1 [Doxorubicin, doxorubicin]	0.7	0.3	0.8	2.5	2.5	1.5	10.1 µM	0.05	0.3	
CCN(CC)CCCC(C)Nc1c2ccc(Cl)cc2nc2ccc(OC)cc12 (stereo not shown) [Quinacrine, quinacrine]	4.5	1.7	> 10	> 10	> 10	4.6	97.7 µM	3.8	5.4	
Nc1cc(S(=O)(=O)O)cc2cc(S(=O)(=O)O)cc(O)c12 [compound 5137134]							105 µM			
Cc1cc2nc3ccc(N(C)C)cc3nc2cc1N [compound 5316833]							66 µM and 66.2 µM			
RAD52, endogenous in U2OS cells (from UniProt P43351 1-418) (natural protein)										inhibition of single-strand annealing (SA-GFP reporter in U2OS-SA cells, FACS) by mitoxantrone, an inhibitor of the RPA:RAD52 interaction, at 4 nM [11]: 72%
